Values of other authors, collected in US20250064735A1, “CONTAINER SYSTEM AND PHARMACEUTICAL FOAM COMPOSITION COMPRISING BETAMETHASONE” (Glenmark Pharmaceuticals Limited, priority 2018, published 2025).

pH at which the substance is stable | Structure (SMILES)
greater than 8 | C=C1/C(=C\C=C2/CCC[C@]3(C)[C@@H]([C@H](C)/C=C/[C@@H](O)C4CC4)CC[C@@H]23)C[C@@H](O)C[C@@H]1O [Calcipotriene]
4-6 | CC1C[C@H]2[C@@H]3CCC4=CC(=O)C=C[C@]4(C)[C@@]3(F)C(O)C[C@]2(C)[C@@]1(O)C(=O)CO (some centres unmarked) [Betamethasone, 9-fluoro-11,17,21-trihydroxy-16-methylpregna-1,4-diene-3,20-dione]
